According to patent US20040147495A1, “Sapogenin derivatives, their synthesis and use, and methods based upon their use” (priority 2001, published 2004):

Tests used:
Sprague Dawley rats = experiment: Alzheimer's disease model (amyloid β + ibotenic acid): step-through test; type: in vivo, rat; settings: for Step through test Error No: 18 mg/kg/day by gastric tube for two months, wrong responses in 5 min, * p < 0.05; for number of wrong responses in step-through test (in words): 18 mg/kg/day, 5 min
Source text: (§1) In addition the co-injection of amyloid β with a small amount of ibotenic acid into the rat hippocampus synergistically produces neuronal loss with infiltration of glial cells not only adjacent but also far from the injected site (Morimoto et al., 1998: Neuroscience, 84, 479-487).
(§2) Our studies used the method of Morimoto (Morimoto et al., 1998: Neuroscience, 84, 479-487) with some modifications (unilateral instead of bilateral injection). Three months old, Sprague Dawley rats, were randomly divided into different groups. Injection of amyloid β1-40 and ibotenic acid (both from Sigma) was accomplished by means of a stereotaxic instrument (Stoelting Co.) and the coordinates were AP=−0.5 mm […], L=−2.8 mm […], H=−7.0 mm (ventral to dura). The dose for each rat was amyloid β1-40 (4 μg) and ibotenic acid (1 μg) in 1 μl of saline. The injection was completed in 20 min, and the needle was withdrawn 10 min later. Then the skin was sutured.
(§3) Episarsasapogenin cathylate, sarsasapogenin cathylate, episarsasapogenin ethylsuccinate (comparison compound), episarsasapogenin, epismilagenin and diosgenin (all at a dosage of 18 mg/kg/day) were administered to animals as stable suspensions in CMC-Na (0.5%) once daily through a gastric tube. The control and the Alzheimer's model group were given the same volume of CMC-Na (0.5%) once daily. The drugs and vehicles were given for a period of two months, starting 20 days before operation.
The effect of test compounds on memory was assessed using the step-through test. A 60×15×15 cm box, divided into 2 equally sized rooms, one dark room with copper rod base, which was electrically charged (40 V ac) when in use, while the other was a light room but not electrically charged. Between the two rooms there is an opening (hole) for the rat to go through. The experiment is carried out for each rat on two consecutive days. The first day is for training; when the rat is adapted in the box for the first 3 min, then put in the light room, with its back toward the hole, and the copper rods of the dark room are charged for 5 min. The second day is for testing, when the number of crosses in 5 min are recorded. Improvements in memory are signalled by a reduction in the number of crosses.

muscarinic receptor [1] = experiment: Alzheimer's disease model (amyloid β + ibotenic acid): brain muscarinic receptor density by 3H-QNB; type: in vivo, rat; settings: Alzheimer's model rats; for brain muscarinic receptor density (in words): 18 mg/kg/day; for Muscarinic receptor Density: 18 mg/kg/day by gastric tube for two months, * p < 0.05
Source text: as §1, §2, §3
The brain samples were homogenised, centrifuged, and the pellet of centrifugation at 27000×g was re-homogenised and used for measurement. The concentration of ^3H-QNB was chosen at the saturation range. After incubation and separation, the bound portion was measured by liquid scintillation counter.

Aged Sprague-Dawley rats = experiment: Y-maze learning and memory test in aged rats; type: in vivo, rat; settings: 18 mg kg−1 day−1 in food for three months
Method: (§4) Aged Sprague-Dawley rats aged were divided randomly into 4 groups, one control and groups treated for three months with either sarsasapogenin, episarsasapogenin cathylate or smilagenin (18 mg kg^−1 day^−1, n=10). A control group (n=14) of untreated young rats was also included in the study. The daily dose of drug was mixed in a minimum amount of food and was administered every morning separately to each rat.
A Y-maze apparatus was used for the learning and memory test. On the floor of each arm of the Y-maze is an array of copper rods to which electric current is applied whenever needed, with adjustable voltage. Each arm is 45 cm long and has a 15 W lamp at the end, which is turned on when needed. After 3 months drug administration, each rat was trained for 7 consecutive days, as follows. For each training session, the rat was put into one arm of the Y-maze, after two minutes rest, an electrical current was applied to the copper rods and the lamp of the clockwise arm was illuminated to indicate the non-stimulation area. If the rat went into that arm, one correct response was recorded, otherwise, one wrong response was recorded. This stimulation-response test was repeated 20 times each day, with a pause of 5 sec between each two consecutive tests. The number of correct responses following the twenty tests on the seventh day was used to express learning ability, (the higher the number the better the learning ability). The rats were then left resting for 30 days and the procedure was repeated once more. The number of correct responses of the 20 tests after the 30 day rest period was used to represent the memory ability

muscarinic receptor [2] = experiment: Cell based assay: muscarinic receptor number in transfected CHO cells by [3H]NMS binding; set-up: species or system Chinese hamster; settings: CHO cells expressing muscarinic receptor
Source text: Chinese hamster ovary (CHO) cells transfected with a vector coding for a muscarinic receptor and/or beta adrenoreceptor. The cell line used for the majority of the experiments was a cell line expressing a muscarinic receptor.
The effects of epismilagenin cathylate, sarsasapogenin cathylate, episarsasapogenin cathylate, episarsasapogenin succinate, epismilagenin acetate and sarsasapogenin on the expression of m receptors in CHO cells transfected with vector for the m receptor were investigated. Receptor numbers were assayed using [^3H]NMS binding and subtracting non-specific binding. Compounds were dissolved in dimethyl sulphoxide (DMSO) and DMSO was used as a control.
(§5) Chinese hamster ovary (CHO) cells expressing high levels of muscarinic receptor (˜2.2 pmol mg protein^−1) were plated on a 24 well plate, 1 day before the start of the experiment. The culture medium was replaced with medium containing vehicle (DMSO) or the compounds.
(§6) The cells were incubated for 2/3 days, then after a medium change, cells were incubated for a further 2/3 days. The cells were incubated with a saturating concentration of labelled N-methyl-scopolamine, ([^3H]NMS). Cells were washed with ice cold phosphate-buffered saline (PBS) (3×) and bound [^3H]NMS determined by solubilising receptors with RIPA buffer followed by liquid scintillation counting.

[3] = test system: rat primary cortical neurons; experiment: Neuroprotection against glutamate-induced neurodegeneration (LDH release); type: cell-based; settings: rat primary cortical cultures pre-treated for 24 h, read 24 h after glutamate
Method: Rat cortical neurons were cultured for 10 days; at day 10 the medium was changed to a serum-free defined medium. On day 12, 24 hours before glutamate exposure, cultures were washed and medium was replaced with fresh medium containing positive control (β-oestradiol), test compounds (sarsasapogenin, episarsasapogenin cathylate or smilagenin) or vehicle control (DMSO, 0.25%).
On day 13, cultures were exposed to glutamate.
After the incubation period, the cultures were washed with and placed in fresh medium, supplemented with relevant compounds or vehicle to evaluate their protective effects, 24 h after glutamate exposure.
Neuronal cell survival was evaluated by measuring lactate dehydrogenase (LDH) activity released in the media 24 h after test compound treatment or glutamate+test compound exposure, using the CytoTox 96 non-radioactive kit and quantitated by measuring wavelength absorbance at 450 nm.

muscarinic receptor [4] = experiment: Muscarinic receptor density in brain of aged rats (dual-site competitive 3H-QNB binding); type: in vivo, rat; settings: 18 mg kg−1 day−1 in food for three months
Method: as §4
Tissue preparation: Brains were removed quickly after decapitation, frozen in dry ice, and transferred to a freezer. The brains were homogenised and the pellet was finally suspended in buffer.
Dual-site competitive ligand binding assay: ^3H-QNB (quinuclinidyl benzilate) was used as the radio-ligand which was non-selective to M receptor subtypes in vitro. Pirenzipine was used as the selective non-radioactive competing agent. Protein concentration was determined by the micro-Lowry method.

m3 muscarinic receptors = experiment: CHO-β2/m3 co-transfected cell line: m3 receptor density ([3H]NMS); type: cell-based, Chinese hamster; settings: day 5
Method: as §5, §6
(§7) The results shown in FIG. 5 used a CHO cell line co-transfected to express both β2 adrenoceptors and m3 muscarinic receptors. To measure the β2 and m3 receptor density, both [^3H]NMS and [^3H]CGP were used.

β2 adrenoceptors = experiment: CHO-β2/m3 co-transfected cell line: β2 adrenoceptor density ([3H]CGP); type: cell-based, Chinese hamster; settings: day 5
Method: as §5, §6, §7

SMILES | Step through test Error No (Sprague Dawley rats) | number of wrong responses in step-through test (in words) (Sprague Dawley rats) | brain muscarinic receptor density (in words) (muscarinic receptor [1]) | Muscarinic receptor Density (muscarinic receptor [1]) | learning and memory ability (Y-maze) (Aged Sprague-Dawley rats) | effect on decrease in muscarinic receptor number over the culturing period (muscarinic receptor [2]) | glutamate-induced neurodegeneration (LDH release) [3] | muscarinic receptor number in brain (muscarinic receptor [4]) | density of m3 receptors (m3 muscarinic receptors) | decrease in β2 adrenoceptors (β2 adrenoceptors)
C[C@@H]1CC[C@@]2(OC1)O[C@H]1C[C@H]3[C@@H]4CC=C5C[C@@H](O)CC[C@]5(C)[C@H]4CC[C@]3(C)[C@H]1[C@@H]2C [diosgenin, reference compound] | 3.75 ± 1.49 | ineffective in decreasing the number of wrong responses | did not significantly change the muscarinic receptor density | 770 ± 68 fmol/mg/protein |  |  |  |  |  | 
CCOC(=O)O[C@@H]1CC[C@@]2(C)[C@H](CC[C@@H]3[C@@H]2CC[C@]2(C)[C@@H]4[C@H](C[C@@H]32)O[C@]2(CC[C@H](C)CO2)[C@H]4C)C1 [episarsasapogenin cathylate, 3-Ethoxycarbonyl 5β,20α,22α,25S-spirostan-3α-ol] | 1.36 ± 0.92* | significantly decreased the number of wrong responses | significant elevation in brain muscarinic receptor density | 877 ± 89* fmol/mg/protein | restored the learning and memory ability | prevents the decrease in muscarinic receptor number | significant reduction in the glutamate-induced neurodegeneration | significantly restored the muscarinic receptor number |  | 
CCOC(=O)CCC(=O)OC1CCC2(C)C(CCC3C2CCC2(C)C3CC3OC4(CCC(C)CO4)C(C)C32)C1 (stereo not shown) [episarsasapogenin ethylsuccinate, reference compound] | 3.73 ± 1.35 | ineffective in decreasing the number of wrong responses | did not significantly change the muscarinic receptor density | 774 ± 79 fmol/mg/protein |  |  |  |  |  | 
CC1CCC2(OC1)OC1CC3C4CCC5CC(OC(=O)CCC(=O)O)CCC5(C)C4CCC3(C)C1C2C (stereo not drawn) [episarsasapogenin succinate, mono-3α,5β,20α,22α,25S-spirostanyl succinate] |  |  |  |  |  | prevents the decrease in muscarinic receptor number |  |  |  | 
C[C@H]1CC[C@@]2(OC1)O[C@H]1C[C@H]3[C@@H]4CC[C@@H]5C[C@H](O)CC[C@]5(C)[C@H]4CC[C@]3(C)[C@H]1[C@@H]2C [episarsasapogenin] | 1.50 ± 1.18* | significantly decreased the number of wrong responses | significant elevation in brain muscarinic receptor density | 869 ± 104* fmol/mg/protein |  |  |  |  |  | 
CC(=O)OC1CCC2(C)C(CCC3C2CCC2(C)C3CC3OC4(CCC(C)CO4)C(C)C32)C1 (stereo not shown) [epismilagenin acetate] |  |  |  |  |  |  |  |  | did not significantly alter the density of m3 receptors | significantly prevented
CCOC(=O)O[C@@H]1CC[C@@]2(C)[C@H](CC[C@@H]3[C@@H]2CC[C@]2(C)[C@@H]4[C@H](C[C@@H]32)O[C@]2(CC[C@@H](C)CO2)[C@H]4C)C1 [epismilagenin cathylate, 3-Ethoxycarbonyl 5β,20α,22α,25R-spirostan-3α-ol] |  |  |  |  |  | prevents the decrease in muscarinic receptor number |  |  |  | 
C[C@@H]1CC[C@@]2(OC1)O[C@H]1C[C@H]3[C@@H]4CC[C@@H]5C[C@H](O)CC[C@]5(C)[C@H]4CC[C@]3(C)[C@H]1[C@@H]2C [epismilagenin] | 1.73 ± 0.91* | significantly decreased the number of wrong responses | significant elevation in brain muscarinic receptor density | 877 ± 90* fmol/mg/protein |  |  |  |  |  | 
CCOC(=O)O[C@H]1CC[C@@]2(C)[C@H](CC[C@@H]3[C@@H]2CC[C@]2(C)[C@@H]4[C@H](C[C@@H]32)O[C@]2(CC[C@H](C)CO2)[C@H]4C)C1 [sarsasapogenin cathylate, 3-Ethoxycarbonyl 5β,20α,22α,25S-spirostan-3-β-ol] | 1.36 ± 1.03* | significantly decreased the number of wrong responses | significant elevation in brain muscarinic receptor density | 916 ± 158* fmol/mg/protein |  | prevents the decrease in muscarinic receptor number |  |  |  | 
C[C@H]1CC[C@@]2(OC1)O[C@H]1C[C@H]3[C@@H]4CC[C@@H]5C[C@@H](O)CC[C@]5(C)[C@H]4CC[C@]3(C)[C@H]1[C@@H]2C [sarsasapogenin] |  |  |  |  | restored the learning and memory ability | prevents the decrease in muscarinic receptor number | significant reduction in the glutamate-induced neurodegeneration | significantly restored the muscarinic receptor number |  | 
C[C@@H]1CC[C@@]2(OC1)O[C@H]1C[C@H]3[C@@H]4CC[C@@H]5C[C@@H](O)CC[C@]5(C)[C@H]4CC[C@]3(C)[C@H]1[C@@H]2C [smilagenin] |  |  |  |  | restored the learning and memory ability |  | significant reduction in the glutamate-induced neurodegeneration | significantly restored the muscarinic receptor number |  | 
